Assay results reported in PubChem BioAssay (NCI).
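In this assay, cells in 96-well plates receive the compound at five concentrations for 48 hours. Endpoints are linearly interpolated between the surrounding concentrations. TGI denotes the concentration required for complete inhibition of growth.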

Key:
Experiment in all cases: inhibition of tumour cell growth, NCI panel, 48 h
[1] = system: 786-0 renal
[2] = system: A498 renal
[3] = system: A549 NSCLC
[4] = system: ACHN renal
[5] = system: BT-549 breast
[6] = system: CAKI-1 renal
[7] = system: CCRF-CEM leukemia
[8] = system: COLO 205 colon
[9] = system: DU-145 prostate
[10] = system: EKVX NSCLC
[11] = system: HCC-2998 colon
[12] = system: HCT-116 colon
[13] = system: HCT-15 colon
[14] = system: HL-60(TB) leukemia
[15] = system: HOP-62 NSCLC
[16] = system: HOP-92 NSCLC
[17] = system: HS 578T breast
[18] = system: HT29 colon
[19] = system: IGROV1 ovarian
[20] = system: K-562 leukemia
[21] = system: LOX IMVI melanoma
[22] = system: M14 melanoma
[23] = system: MALME-3M melanoma
[24] = system: MCF7 breast
[25] = system: MDA-MB-231 breast
[26] = system: MDA-MB-435
[27] = system: MDA-N
[28] = system: MOLT-4 leukemia
[29] = system: NCI-H226 lung
[30] = system: NCI-H23 lung
[31] = system: NCI-H460 lung
[32] = system: NCI-H522 lung
[33] = system: NCI/ADR-RES ovarian
[34] = system: OVCAR-3 ovarian
[35] = system: OVCAR-4 ovarian
[36] = system: OVCAR-5 ovarian
[37] = system: OVCAR-8 ovarian
[38] = system: PC-3 prostate
[39] = system: RPMI-8226 leukemia
[40] = system: RXF 393 renal
[41] = system: SF-268 CNS
[42] = system: SF-295 CNS
[43] = system: SF-539 CNS
[44] = system: SK-MEL-2 melanoma
[45] = system: SK-MEL-28 melanoma
[46] = system: SK-MEL-5 melanoma
[47] = system: SK-OV-3 ovarian
[48] = system: SN12C renal
[49] = system: SNB-19 CNS
[50] = system: SNB-75 CNS
[51] = system: SR leukemia
[52] = system: SW-620 colon
[53] = system: T-47D breast
[54] = system: TK-10 renal
[55] = system: U251 CNS
[56] = system: UACC-257 melanoma
[57] = system: UACC-62 melanoma
[58] = system: UO-31 renal
[59] = system: KM12 colon

COc1ccc(CSC2=C(C#N)C(=O)NC3(CCCCC3)S2)cc1
TGI [1]: > 100 µM
TGI [2]: > 100 µM
TGI [3]: > 100 µM
TGI [4]: > 100 µM
TGI [5]: > 100 µM
TGI [6]: > 100 µM
TGI [7]: 24.7 µM
TGI [8]: > 100 µM
TGI [9]: > 100 µM
TGI [10]: > 100 µM
TGI [11]: 62.4 µM
TGI [12]: > 100 µM
TGI [13]: > 100 µM
TGI [14]: 19 µM
TGI [15]: > 100 µM
TGI [16]: > 100 µM
TGI [17]: > 75.8 µM
TGI [18]: > 100 µM
TGI [19]: > 100 µM
TGI [20]: > 100 µM
TGI [21]: > 64.8 µM
TGI [22]: > 100 µM
TGI [23]: > 100 µM
TGI [24]: > 100 µM
TGI [25]: > 100 µM
TGI [26]: 38.2 µM
TGI [27]: 57.5 µM
TGI [28]: > 100 µM
TGI [29]: > 100 µM
TGI [30]: > 100 µM
TGI [31]: > 100 µM
TGI [32]: 97.2 µM
TGI [33]: > 100 µM
TGI [34]: > 82.1 µM
TGI [35]: > 100 µM
TGI [36]: > 100 µM
TGI [37]: > 100 µM
TGI [38]: > 100 µM
TGI [39]: > 100 µM
TGI [40]: > 73.3 µM
TGI [41]: > 87.4 µM
TGI [42]: > 100 µM
TGI [43]: > 100 µM
TGI [44]: > 100 µM
TGI [45]: > 100 µM
TGI [46]: > 100 µM
TGI [47]: > 100 µM
TGI [48]: > 100 µM
TGI [49]: > 100 µM
TGI [50]: > 100 µM
TGI [51]: > 100 µM
TGI [52]: > 100 µM
TGI [53]: 63.2 µM
TGI [54]: > 100 µM
TGI [55]: > 100 µM
TGI [56]: > 100 µM
TGI [57]: > 100 µM
TGI [58]: > 100 µM

Cc1nc2ccc(Cl)cc2c2c1CCO2
TGI [1]: > 100 µM
TGI [2]: > 100 µM
TGI [3]: > 100 µM
TGI [4]: > 100 µM
TGI [5]: > 100 µM
TGI [6]: 79.6 µM
TGI [7]: > 100 µM
TGI [8]: > 100 µM
TGI [9]: > 100 µM
TGI [10]: > 100 µM
TGI [11]: > 100 µM
TGI [12]: > 100 µM
TGI [13]: > 100 µM
TGI [14]: > 100 µM
TGI [15]: > 100 µM
TGI [16]: > 100 µM
TGI [17]: > 100 µM
TGI [18]: > 100 µM
TGI [19]: > 100 µM
TGI [20]: > 100 µM
TGI [59]: > 100 µM
TGI [21]: > 100 µM
TGI [23]: > 100 µM
TGI [24]: > 100 µM
TGI [25]: > 100 µM
TGI [26]: > 100 µM
TGI [27]: > 100 µM
TGI [28]: > 100 µM
TGI [29]: > 100 µM
TGI [30]: > 100 µM
TGI [31]: > 100 µM
TGI [32]: > 100 µM
TGI [33]: > 100 µM
TGI [34]: > 100 µM
TGI [35]: > 100 µM
TGI [37]: > 100 µM
TGI [38]: > 100 µM
TGI [39]: > 100 µM
TGI [40]: 71.3 µM
TGI [41]: > 100 µM
TGI [42]: > 100 µM
TGI [43]: > 100 µM
TGI [45]: > 100 µM
TGI [46]: > 100 µM
TGI [48]: > 100 µM
TGI [49]: > 100 µM
TGI [50]: > 100 µM
TGI [51]: > 100 µM
TGI [52]: > 100 µM
TGI [53]: > 100 µM
TGI [54]: > 100 µM
TGI [55]: > 100 µM
TGI [56]: > 100 µM
TGI [57]: > 100 µM
TGI [58]: > 100 µM

O=C1Nc2cccc(Cl)c2/C1=C\c1c(-c2ccccc2)nc2n1CCS2
TGI [1]: 36.2 µM
TGI [2]: 39.4 µM
TGI [3]: 49.1 µM
TGI [4]: 32.3 µM
TGI [5]: 76.5 µM
TGI [6]: 73.8 µM
TGI [7]: 33.1 µM
TGI [8]: 39.5 µM
TGI [9]: 44.9 µM
TGI [10]: 74.7 µM
TGI [11]: 46.7 µM
TGI [12]: 54.6 µM
TGI [13]: 83.1 µM
TGI [14]: 41.3 µM
TGI [15]: 66.1 µM
TGI [16]: 56.9 µM
TGI [17]: 61.4 µM
TGI [18]: 42.5 µM
TGI [19]: 37.5 µM
TGI [20]: 55.1 µM
TGI [59]: 52.1 µM
TGI [21]: 36.3 µM
TGI [22]: 45.2 µM
TGI [23]: 46.3 µM
TGI [24]: 39.1 µM
TGI [25]: 49 µM
TGI [26]: 36.5 µM
TGI [27]: 40.6 µM
TGI [28]: 39.4 µM
TGI [30]: 88.7 µM
TGI [31]: 40.7 µM
TGI [32]: > 100 µM
TGI [33]: > 100 µM
TGI [34]: 43.5 µM
TGI [36]: 48.2 µM
TGI [37]: 83.6 µM
TGI [38]: 41.8 µM
TGI [39]: 52.9 µM
TGI [40]: 42.5 µM
TGI [41]: 66.9 µM
TGI [42]: > 100 µM
TGI [43]: 36 µM
TGI [44]: 46.2 µM
TGI [45]: 44.7 µM
TGI [46]: 51.6 µM
TGI [47]: 65.9 µM
TGI [48]: 31.7 µM
TGI [49]: 66.1 µM
TGI [50]: 66.8 µM
TGI [51]: 53.2 µM
TGI [52]: 35.2 µM
TGI [53]: 48.9 µM
TGI [54]: 45.1 µM
TGI [55]: 47.4 µM
TGI [56]: 51.4 µM
TGI [57]: 45.6 µM
TGI [58]: 48.8 µM

COC(=O)/C=C\n1nc(Br)c(=O)[nH]c1=O
TGI [2]: > 100 µM
TGI [3]: > 100 µM
TGI [4]: > 100 µM
TGI [5]: > 100 µM
TGI [6]: > 100 µM
TGI [7]: > 100 µM
TGI [8]: > 100 µM
TGI [9]: > 100 µM
TGI [10]: > 100 µM
TGI [11]: > 100 µM
TGI [13]: > 100 µM
TGI [14]: > 100 µM
TGI [15]: > 100 µM
TGI [16]: > 100 µM
TGI [17]: > 100 µM
TGI [18]: > 100 µM
TGI [19]: > 100 µM
TGI [20]: > 100 µM
TGI [59]: > 100 µM
TGI [21]: > 100 µM
TGI [22]: > 100 µM
TGI [23]: > 100 µM
TGI [24]: > 100 µM
TGI [25]: > 100 µM
TGI [26]: > 100 µM
TGI [27]: > 100 µM
TGI [30]: > 100 µM
TGI [31]: > 100 µM
TGI [32]: > 100 µM
TGI [33]: > 100 µM
TGI [34]: > 100 µM
TGI [35]: > 100 µM
TGI [36]: > 100 µM
TGI [37]: > 100 µM
TGI [38]: > 100 µM
TGI [39]: > 100 µM
TGI [40]: > 100 µM
TGI [41]: > 100 µM
TGI [43]: > 100 µM
TGI [44]: > 100 µM
TGI [45]: > 100 µM
TGI [46]: > 100 µM
TGI [48]: > 100 µM
TGI [49]: > 100 µM
TGI [50]: > 100 µM
TGI [51]: > 100 µM
TGI [52]: > 100 µM
TGI [53]: > 100 µM
TGI [54]: > 100 µM
TGI [55]: > 100 µM
TGI [56]: > 100 µM
TGI [58]: > 100 µM
